Data reported in patent US20050203068A1, “Pharmaceutical compositions containing water-soluble prodrugs of propofol and methods of administering same” (priority 2002, published 2005).
Where a name gives a salt, the structure may show the parent alone.

Experiments:
healthy subjects [1] = assay: Single bolus AQUAVAN, six cohorts: lowest OAA/S score and duration of sedation; type: in vivo, human
Description: (§1) Twenty-four healthy subjects (all ASA 1, 25±5 yrs., 70±8 kg) were randomized into 4 cohorts, with 3 male and 3 female in each. Each of the four cohorts was given a single dose of the study formulation described in Table 1 above (5, 10, 20, and 25 mg/kg, AQUAVAN™ respectively). Anesthetic effect was measured continuously using a BIS-XP monitor (Aspect Medical Systems, Natick, Mass.). The lowest BIS level (BISpeak) was recorded. One week later, propofol was given to the same individuals at a rapid infusion rate of 300 ml/h to reach a similar BISpeak. Heart rate (HR), O2 saturation, systolic (SBP) and diastolic (DBP) blood pressure were monitored non-invasively. Incidence and duration of apnea, loss (LOC) and return (ROC) of consciousness and duration of unconsciousness (DOU) were measured with the OAA/S score. Adverse events were recorded. Statistical analysis was performed using Wilcoxon Signed Ranks Test, Mann-Whitney-U test, Chi-Square test and Pearson correlation where appropriate.
In addition to induction of unconsciousness and duration of general anesthesia (see above), the response of the study subjects to AQUAVAN™ was also examined with regard to sedation. For this purpose, two additional cohorts (n=6 each) were dosed with 15 and 30 mg/kg of AQUAVAN™ as described above. For subjects in all six cohorts, the lowest OAA/S score achieved after AQUAVAN™ administration and the duration of sedation were recorded, with an OAA/S score of 5 indicating no sedation, scores ranging from 4-2 indicating increasingly deep sedated states, and a score of 1 indicating loss of consciousness (LOC)(but allowing for an undirected response to painful tactile stimuli). […] A conscious sedated state typically preceded and followed a period of unconsciousness in subjects who reached LOC. “Mean duration of sedation/LOC” in Table 4 refers to the total time interval from onset of sedation through LOC to recovery of alertness (no sedation).

healthy male volunteers = assay: Target controlled infusion (TCI) of AQUAVAN vs propofol: EEG, loss/recovery of consciousness and corneal reflex; type: in vivo, human; conditions: for Time to LOCR (loss of corneal reflex) / Time to ROC (recovery of consciousness) / Time to ROCR (recovery of corneal reflex) / Time to LOC (loss of consciousness): TCI infusion 60 min, propofol targets 5, 3, 1.5 micrograms/ml; for Time to LOC (loss of consciousness): time after start of infusion
Description: This example compares the effects of target controlled infusions (TCI) of propofol and of O-phosphonooxymethyl propofol disodium salt (AQUAVAN™) on electrical brain activity and consciousness of healthy male volunteers. A sterile solution was prepared in a 20 mL vial, with 20 mg/mL of AQUAVAN™ and 0.4 wt % NaCl. The pH of the solution was adjusted to 8.6±0.4 with HCl or NaOH, as needed.
Nine male volunteers (age 19 to 35 yrs., body wt. 70 to 86 kg) received propofol as a target controlled infusion (TCI) with three different target concentrations over 60 min. After a washout period of 14 days, the same volunteers received a TCI infusion of AQUAVAN™ with identical propofol target concentrations (crossover design). The infusion scheme was a linear increasing propofol concentration up to 5 micrograms/ml for the first 20 minutes, a target of 3 micrograms/ml for the following 20 minutes, and a target propofol plasma concentration of 1.5 micrograms/ml for the following 20 minutes. At 60 minutes, the infusion was stopped.
The EEG was recorded using the CATEEM® system and the data analysis was based on the lead O1-CZ. All subjects were tested every 1.5 minutes for Loss and Recovery of Consciousness (LOC and ROC), and for Loss and Recovery of Corneal Reflex (LOCR and ROCR). Arterial blood samples were drawn at predetermined times up to 240 minutes after start of the infusion. The AQUAVAN™ and propofol plasma concentrations were measured with an LC/MS/MS validated assay and an HPLC-FL validated assay (see FIG. 1).

healthy subjects [2] = assay: Single bolus AQUAVAN vs equipotent rapid infusion of propofol: anesthetic effect (BIS, LOC, ROC, DOU), adverse events; type: in vivo, human; conditions: for Pain on injection, incidence / Apnea, incidence / Initial increase in heart rate (HR>90 bpm), incidence: 24 subjects; for Pain on injection, incidence: all cohorts; for Apnea, incidence: dose-dependent; for Initial increase in heart rate (HR>90 bpm), incidence: following administration; for Initial increase in heart rate (HR>90 bpm), incidence / Time of BISpeak (lowest BIS level): p<0.05; for Time of BISpeak (lowest BIS level): AQUAVAN bolus 5-25 mg/kg, propofol rapid infusion 300 ml/h to similar BISpeak; for DOU (duration of unconsciousness) / Time to LOC / Time to ROC: n=6, mean ± SD
Description: This example compares the pharmacodynamics of propofol when administered as a single, bolus dose of the prodrug O-phosphonooxymethyl-propofol di-sodium salt (AQUAVAN™) in accordance with the present invention, to the pharmacodynamics of propofol when administered as such. A sterile solution, the “study formulation,” was prepared in a 20 mL vial, with 20 mg/mL of AQUAVAN™ and 0.4 wt % NaCl. The pH of the solution was adjusted to 8.6±0.4 with HCl or NaOH, as needed.
as §1

healthy volunteers = assay: TCI infusion of AQUAVAN over 2 hours: alertness/sedation (OAA/S, BIS), haemodynamics, propofol plasma concentration
Description: A sterile solution of AQUAVAN™ was prepared as described for Example 1, above.
Six female (28±3 yrs, 57±4 kg body weight) and 6 male (32±6 yrs., 78±9 kg body weight) volunteers were studied. For a period of 2 hours, a TCI infusion of AQUAVAN™ was administered to provide adequate sedation. The initially selected target concentration of propofol from AQUAVAN™ was 1.8 μg/ml. Sedation was rated as adequate if according to a modified Observers Assessment of Alertness and Sedation Scale (OAA/S) the OAA/S scale value was 2 to 3. After 60 minutes, the target concentration was increased to 2.4 or 3 μg/ml if the OAA/S scale value was 4 or 5, respectively, or reduced to 1.4 μg/ml if the OAA/S scale value was 0 to 1. With an Aspect® A-1000 monitor and two frontal leads the BIS values were recorded. The ECG, blood pressure, heart rate, SaO2 and GPI as well as propofol plasma concentrations were measured. All values are given as mean±standard deviation.

patients = conditions: anesthetic induction doses of propofol; Bryson et al.; cited from earlier work
[3] = Cohort 3 (20 mg/kg AQUAVAN bolus; propofol rapid infusion to similar BISpeak)
[4] = Cohort 4 (25 mg/kg AQUAVAN bolus; propofol rapid infusion to similar BISpeak)

## CC(C)c1cccc(C(C)C)c1OCOP(=O)(O)O [AQUAVAN, O-phosphonooxymethyl propofol disodium salt]
Healthy subjects [1]; Cohort 1: 5 mg/kg bolus
  Duration - range: 0 to 16 min
  Mean duration of sedation/LOC: 4.2 min
Healthy subjects [1]; Cohort 2: 10 mg/kg bolus
  Duration - range: 0 to 24 min
  Mean duration of sedation/LOC: 14 min
Healthy subjects [1]; Cohort 3: 20 mg/kg bolus
  Duration - range: 22 to 45 min
  Mean duration of sedation/LOC: 39.5 min
Healthy subjects [1]; Cohort 4: 25 mg/kg bolus
  Duration - range: 42 to 78 min
  Mean duration of sedation/LOC: 57.8 min
Healthy subjects [1]; Cohort 5: 15 mg/kg bolus
  Duration - range: 18 to 34 min
  Lowest OAA/S Score (subjects - score): 6/6 - 1 (LOC)
  Mean duration of sedation/LOC: 22.6 min
Healthy subjects [1]; Cohort 6: 30 mg/kg bolus
  Duration - range: 43 to 96 min
  Mean duration of sedation/LOC: 54.3 min
Healthy subjects [1]; bolus doses of 15 mg/kg and higher
  State observed after bolus: induced unconscious states that varied in duration
Healthy subjects [1]; dose ranges of 5-10 mg/kg
  State observed after bolus: Conscious sedation, but no loss of consciousness
Healthy male volunteers
  Time to LOCR (loss of corneal reflex): 16 ± 5 min
  Time to ROC (recovery of consciousness): 73 ± 13 min
  Time to ROCR (recovery of corneal reflex): 46 ± 15 min
  Time to LOC (loss of consciousness): 9 ± 2 min
Healthy male volunteers; plasma propofol from AQUAVAN compared to plasma propofol from propofol, comparable plasma concentrations
  Decrease of Median Power Frequency (MPF) in the EEG: greater decrease of the MPF
Healthy subjects [2]; 5 mg/kg single bolus cohort
  Loss of consciousness (LOC) reached: no LOC was reached
Healthy subjects [2]; 10 mg/kg single bolus cohort
  Loss of consciousness (LOC) reached: no LOC was reached
Healthy subjects [2]; 20 mg/kg single bolus cohort
  Loss of consciousness (LOC) reached: all subjects reached LOC
Healthy subjects [2]; 25 mg/kg single bolus cohort
  Loss of consciousness (LOC) reached: all subjects reached LOC
Healthy subjects [2]
  Pain on injection, incidence: only reported for propofol
  Apnea, incidence: 7 of 24
  Initial increase in heart rate (HR>90 bpm), incidence: 17 of the 24
  Time of BISpeak (lowest BIS level): 630 ± 225 s
Healthy subjects [2]; [3]
  DOU (duration of unconsciousness): 1507 ± 914 s
  Time to LOC: 157 ± 69 s
  Time to ROC: 1664 ± 920 s
Healthy subjects [2]; [4]
  DOU (duration of unconsciousness): 2703 ± 267 s
  Time to LOC: 162 ± 40 s
  Time to ROC: 2865 ± 245 s
Healthy volunteers; TCI infusion, initial propofol target 1.8 μg/ml, mean±SD
  OAA/S scale value after 60 minutes: 3.7±1.1
Healthy volunteers; after 2 hour TCI infusion, mean±SD
  Time after stopping the infusion to recovery to OAA/S scale value of 5: 18 ± 3 min
Healthy volunteers; decreased from 134±14
  Systolic BP after decrease: 106±10 mm Hg
Healthy volunteers; during the first hour of infusion (96±2 before infusion)
  BIS value: 74±13
Healthy volunteers; during the second hour of infusion
  BIS value: 64±14
Healthy volunteers; from 64±14 to 72±8
  Heart rate increase: 13%
Healthy volunteers; from 134±14 to 106±10 mm Hg
  Systolic BP decrease: 21%
Healthy volunteers; increased from 64±14
  Heart rate after increase: 72±8
Healthy volunteers; target changed at 60 minutes, mean±SD
  Time after TCI target change until OAA/S scale value in target range of 2 to 3: 4.2 ± 2.5 min

## CC(C)c1cccc(C(C)C)c1O [propofol, 2,6-diisopropylphenol]
patients
  Respiratory consequences, including reduction in tidal volume and apnea: share of patients: up to 83%
Healthy male volunteers
  Time to LOCR (loss of corneal reflex): 19 ± 6 min
  Time to ROC (recovery of consciousness): 47 ± 10 min
  Time to ROCR (recovery of corneal reflex): 32 ± 10 min
  Time to LOC (loss of consciousness): 13 ± 2 min
Healthy subjects [2]
  Pain on injection, incidence: 10 of the 24
  Apnea, incidence: 10 of 24
  Initial increase in heart rate (HR>90 bpm), incidence: 4 of the 24
  Time of BISpeak (lowest BIS level): 358 ± 315 s
Healthy subjects [2]; [3]
  DOU (duration of unconsciousness): 416 ± 94 s
  Time to LOC: 184 ± 63 s
  Time to ROC: 600 ± 105 s
Healthy subjects [2]; [4]
  DOU (duration of unconsciousness): 748 ± 245 s
  Time to LOC: 208 ± 84 s
  Time to ROC: 956 ± 294 s
